From patent publication EP3046573B1, “AMYLIN ANALOGUES” (Zealand Pharma A/S, priority 2013, dated 2015) come the findings set out here.

Data set [1] is described as follows: Solubility assessment (turbidity absorbance at 325 nm). It is filed as physicochemical. The note with it: stock 2 mg/ml diluted 1:1, ambient temperature (typically 25°C), n=1; for Solubility, Acetate buffer pH 4: 100 mM acetate buffer pH 4.0; for Solubility, Acetate buffer pH 5: 100 mM acetate buffer pH 5.0; for Solubility, Histidine buffer pH 6: 100 mM histidine buffer pH 6.0; for Solubility, Histidine buffer pH 7: 100 mM histidine buffer pH 7.0; for Solubility, Phosphate buffer pH 6: 100 mM phosphate buffer pH 6.0; for Solubility, Phosphate buffer pH 7: 100 mM phosphate buffer pH 7.0; for Solubility, Phosphate buffer pH 7.5: 100 mM phosphate buffer pH7.5. The method in brief: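 Peptide stock (2 mg/ml, water pH 2.5) diluted 1:1 into 100 mM acetate (pH 4.0, 5.0), histidine (pH 6.0, 7.0) or phosphate (pH 6.0–7.5) buffer; absorbance at 325 nm read at about 25°C, n=1. A325 ≤ 0.02 taken as solubility ≥ 1 mg/ml.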

Data set [2] addresses T1, human calcitonin receptor (hCTR2) (Homo sapiens, UniProt P30988).
T1 construct: expressed in transfected cells
T1 sequence (P30988 25-474): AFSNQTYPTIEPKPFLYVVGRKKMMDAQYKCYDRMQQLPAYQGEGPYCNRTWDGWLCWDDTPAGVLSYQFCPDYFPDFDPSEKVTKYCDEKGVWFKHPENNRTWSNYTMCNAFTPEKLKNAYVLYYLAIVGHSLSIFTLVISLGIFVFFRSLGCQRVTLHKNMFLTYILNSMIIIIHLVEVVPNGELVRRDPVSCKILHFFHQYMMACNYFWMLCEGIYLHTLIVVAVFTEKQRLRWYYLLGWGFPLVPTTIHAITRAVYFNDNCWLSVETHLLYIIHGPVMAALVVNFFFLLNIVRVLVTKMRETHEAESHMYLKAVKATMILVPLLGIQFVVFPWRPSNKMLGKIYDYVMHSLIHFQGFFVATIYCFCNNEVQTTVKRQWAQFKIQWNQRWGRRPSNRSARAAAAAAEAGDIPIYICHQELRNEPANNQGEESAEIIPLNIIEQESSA
The data set is described as follows: hCTR2 assay: induction of cAMP (AlphaScreen cAMP Assay kit) in COS7 cells expressing hCTR2. The data set is classed as cell-based. Summed up:
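Functional agonism is measured as cAMP accumulation in a COS7 line stably transfected with hCTR2, lacking endogenous RAMPs. Peptides act for 15 min at 37° C with IBMX present, and curves are fitted with a 4-parameter logistic model.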

[3] abbreviates: cAMP induction in COS7 cells expressing hCTR2, average of a minimum of 3 determinations, read-out: hCTR2 EC50.

Like-named read-outs stand apart in the source and are kept apart here. Numbered stars: 1 amine (or outer) side, 2 acyl side, 3 side chain; on linkers, the order of the positions; unused ones are H or OH. Bridge positions count the residues as written; N and C are the ends. Square brackets hold non-standard residues; d marks the D form. Peptide text beside a SMILES is read from it. * marks the point of attachment. C20 diacid = O=C(O)CCCCCCCCCCCCCCCCCCC(=O)*; γGlu = O=C(O)[C@H](CCC(=O)[*:2])N[*:1]; NMeI = CC[C@H](C)[C@H](NC)C(=O)O; Dap = NC[C@H](N)C(=O)O; Sar = CNCC(=O)O

In general, EC50 refers to the concentration at which the effect is half-maximal. `CC[C@H](C)[C@@H](C(=O)N[C@@H](CC(C)C)C(=O)N[C@@H](CO)C(=O)N[C@@H](CO)C(=O)N[C@H](C(=O)N[C@@H](CC(N)=O)C(=O)N[C@H](C(=O)NCC(=O)N[C@@H](CO)C(=O)N[C@@H](CC(N)=O)C(=O)N[C@H](C(=O)N1CCC[C@H]1C(N)=O)[C@@H](C)O)C(C)C)[C@@H](C)O)N(C)C(=O)[C@H](C)NC(=O)CN(C)C(=O)[C@H](Cc1ccccc1)NC(=O)[C@H](CC(N)=O)NC(=O)[C@H](CC(N)=O)NC(=O)[C@H](CO)NC(=O)[C@H](CO)NC(=O)[C@H](Cc1c[nH]cn1)NC(=O)[C@H](Cc1c[nH]cn1)NC(=O)[C@H](CC(C)C)NC(=O)[C@H](Cc1ccccc1)NC(=O)[C@H](CCC(=O)O)NC(=O)[C@H](C)NC(=O)[C@H](CC(C)C)NC(=O)[C@H](CCCNC(=N)N)NC(=O)[C@H](CCC(N)=O)NC(=O)[C@@H](NC(=O)[C@H](C)NC(=O)[C@@H]1CSSC[C@H](NC(=O)[C@H](CN)NC(=O)CC[C@H](NC(=O)CCCCCCCCCCCCCCCCCCC(=O)O)C(=O)O)C(=O)N[C@@H](CC(N)=O)C(=O)N[C@@H]([C@@H](C)O)C(=O)N[C@@H](C)C(=O)N[C@@H]([C@@H](C)O)C(=O)N1)[C@@H](C)O` [Compound 67, [19CD]-isoGlu-Dap-C()NTATC()ATQRLAEFLHHSSNNF-Gly(Me)-A-Ile(Me)-LSSTNVGSNTP-NH2] ({C20 diacid-γGlu}-[Dap]CNTATCATQRLAEFLHHSSNNF[Sar]A[NMeI]LSSTNVGSNTP-NH2; disulfide 2-7): in data set [1], the “Solubility, Acetate buffer pH 4” value is recorded as “SS (SS indicates solubility ≥ 1mg/ml)”; the “Solubility, Acetate buffer pH 5” value is reported as “SS (SS indicates solubility ≥ 1mg/ml)”; the “Solubility, Histidine buffer pH 6” value is listed as “SS (SS indicates solubility ≥ 1mg/ml)”; the “Solubility, Histidine buffer pH 7” value was “SS (SS indicates solubility ≥ 1mg/ml)”. In data set [1], the “Solubility, Phosphate buffer pH 6” value is “SS (SS indicates solubility ≥ 1mg/ml)”; the “Solubility, Phosphate buffer pH 7” value was “SS (SS indicates solubility ≥ 1mg/ml)”; the “Solubility, Phosphate buffer pH 7.5” value is reported as “SS (SS indicates solubility ≥ 1mg/ml)”. Besides, the EC50 in data set [2] worked out at 190 pM.

With `CC[C@H](C)[C@@H](C(=O)N[C@@H](CC(C)C)C(=O)N[C@H](CO)C(=O)N[C@@H](CO)C(=O)N[C@H](C(=O)N[C@@H](CC(N)=O)C(=O)N[C@H](C(=O)NCC(=O)N[C@@H](CO)C(=O)N[C@@H](CC(N)=O)C(=O)N[C@H](C(=O)N1CCC[C@H]1C(N)=O)[C@@H](C)O)C(C)C)[C@@H](C)O)N(C)C(=O)[C@H](C)NC(=O)CN(C)C(=O)[C@H](Cc1ccccc1)NC(=O)[C@H](CC(N)=O)NC(=O)[C@H](CC(N)=O)NC(=O)[C@H](CO)NC(=O)[C@H](CO)NC(=O)[C@H](CCCNC(=N)N)NC(=O)[C@H](Cc1c[nH]cn1)NC(=O)[C@H](CC(C)C)NC(=O)[C@H](Cc1ccccc1)NC(=O)[C@H](CCC(=O)O)NC(=O)[C@H](C)NC(=O)[C@H](CC(C)C)NC(=O)[C@H](CCCNC(=N)N)NC(=O)[C@H](CCC(N)=O)NC(=O)[C@@H](NC(=O)[C@H](C)NC(=O)[C@@H]1CSSC[C@H](NC(=O)[C@H](CCCCN)NC(=O)CC[C@H](NC(=O)CCCCCCCCCCCCCCCCCCC(=O)O)C(=O)O)C(=O)N[C@@H](CC(N)=O)C(=O)N[C@@H]([C@@H](C)O)C(=O)N[C@@H](C)C(=O)N[C@@H]([C@@H](C)O)C(=O)N1)[C@@H](C)O` [Compound 68, [19CD]-isoGlu-KC()NTATC()ATQRLAEFLHRSSNNF-Gly(Me)-A-Ile(Me)-L-DSer-STNVGSNTP-NH2] ({C20 diacid-γGlu}-KCNTATCATQRLAEFLHRSSNNF[Sar]A[NMeI]L[dS]STNVGSNTP-NH2; disulfide 2-7), in data set [1], the “Solubility, Acetate buffer pH 4” value is “SS (SS indicates solubility ≥ 1mg/ml)”; the “Solubility, Acetate buffer pH 5” value was “SS (SS indicates solubility ≥ 1mg/ml)”; the “Solubility, Histidine buffer pH 6” value is on record as “SS (SS indicates solubility ≥ 1mg/ml)”; the “Solubility, Histidine buffer pH 7” value is “SS (SS indicates solubility ≥ 1mg/ml)”. Further, in data set [1], the “Solubility, Phosphate buffer pH 6” value is given as “SS (SS indicates solubility ≥ 1mg/ml)”; the “Solubility, Phosphate buffer pH 7” value is “SS (SS indicates solubility ≥ 1mg/ml)”; the “Solubility, Phosphate buffer pH 7.5” value is “SS (SS indicates solubility ≥ 1mg/ml)”. Also, the concentration for a half-maximal effect (EC50) in data set [2] was determined as 96 pM.

Consider `CC[C@H](C)[C@@H](C(=O)N[C@@H](CC(C)C)C(=O)N[C@@H](CO)C(=O)N[C@@H](CO)C(=O)N[C@H](C(=O)N[C@@H](CC(N)=O)C(=O)N[C@H](C(=O)NCC(=O)N[C@@H](CO)C(=O)N[C@@H](CC(N)=O)C(=O)N[C@H](C(=O)N1CCC[C@H]1C(N)=O)[C@@H](C)O)C(C)C)[C@@H](C)O)N(C)C(=O)CN(C)C(=O)[C@H](Cc1ccccc1)NC(=O)[C@H](CC(N)=O)NC(=O)[C@H](CC(N)=O)NC(=O)[C@H](CO)NC(=O)[C@H](CO)NC(=O)[C@H](Cc1c[nH]cn1)NC(=O)[C@H](Cc1c[nH]cn1)NC(=O)[C@H](CC(C)C)NC(=O)[C@H](Cc1ccccc1)NC(=O)[C@H](CCC(=O)O)NC(=O)[C@H](C)NC(=O)[C@H](CC(C)C)NC(=O)[C@H](CCCNC(=N)N)NC(=O)[C@H](CCC(N)=O)NC(=O)[C@@H](NC(=O)[C@H](C)NC(=O)[C@@H]1CSSC[C@H](NC(=O)[C@H](CN)NC(=O)CC[C@H](NC(=O)CCCCCCCCCCCCCCCCCCC(=O)O)C(=O)O)C(=O)N[C@@H](CC(N)=O)C(=O)N[C@@H]([C@@H](C)O)C(=O)N[C@@H](C)C(=O)N[C@@H]([C@@H](C)O)C(=O)N1)[C@@H](C)O` [Compound 69, [19CD]-isoGlu-Dap-C()NTATC()ATQRLAEFLHHSSNNF-Gly(Me)-Ile(Me)-LSSTNVGSNTP-NH2] ({C20 diacid-γGlu}-[Dap]CNTATCATQRLAEFLHHSSNNF[Sar][NMeI]LSSTNVGSNTP-NH2; disulfide 2-7), for which, in data set [1], the “Solubility, Acetate buffer pH 4” value is given as “SS (SS indicates solubility ≥ 1mg/ml)”; the “Solubility, Acetate buffer pH 5” value is “SS (SS indicates solubility ≥ 1mg/ml)”; the “Solubility, Histidine buffer pH 6” value is listed as “SS (SS indicates solubility ≥ 1mg/ml)”; the “Solubility, Histidine buffer pH 7” value was “SS (SS indicates solubility ≥ 1mg/ml)”. In addition, in data set [1], the “Solubility, Phosphate buffer pH 6” value is reported as “SS (SS indicates solubility ≥ 1mg/ml)”; the “Solubility, Phosphate buffer pH 7” value was “SS (SS indicates solubility ≥ 1mg/ml)”; the “Solubility, Phosphate buffer pH 7.5” value is recorded as “SS (SS indicates solubility ≥ 1mg/ml)”. Also, the half-maximal effective concentration (EC50) in data set [2] (setting [3]) stood at 240 pM.

In the case of `CC[C@H](C)[C@@H](C(=O)N[C@@H](CC(C)C)C(=O)N[C@H](CO)C(=O)N[C@@H](CO)C(=O)N[C@H](C(=O)N[C@@H](CC(N)=O)C(=O)N[C@H](C(=O)NCC(=O)N[C@@H](CO)C(=O)N[C@@H](CC(N)=O)C(=O)N[C@H](C(=O)N1CCC[C@H]1C(N)=O)[C@@H](C)O)C(C)C)[C@@H](C)O)N(C)C(=O)CN(C)C(=O)[C@H](Cc1ccccc1)NC(=O)[C@H](CC(N)=O)NC(=O)[C@H](CC(N)=O)NC(=O)[C@H](CO)NC(=O)[C@H](CO)NC(=O)[C@H](CCCNC(=N)N)NC(=O)[C@H](Cc1c[nH]cn1)NC(=O)[C@H](CC(C)C)NC(=O)[C@H](Cc1ccccc1)NC(=O)[C@H](CCC(=O)O)NC(=O)[C@H](C)NC(=O)[C@H](CC(C)C)NC(=O)[C@H](CCCNC(=N)N)NC(=O)[C@H](CCC(N)=O)NC(=O)[C@@H](NC(=O)[C@H](C)NC(=O)[C@@H]1CSSC[C@H](NC(=O)[C@H](CCCCN)NC(=O)CC[C@H](NC(=O)CCCCCCCCCCCCCCCCCCC(=O)O)C(=O)O)C(=O)N[C@@H](CC(N)=O)C(=O)N[C@@H]([C@@H](C)O)C(=O)N[C@@H](C)C(=O)N[C@@H]([C@@H](C)O)C(=O)N1)[C@@H](C)O` [Compound 70, [19CD]-isoGlu-KC()NTATC()ATQRLAEFLHRSSNNF-Gly(Me)-Ile(Me)-L-DSer-STNVGSNTP-NH2] ({C20 diacid-γGlu}-KCNTATCATQRLAEFLHRSSNNF[Sar][NMeI]L[dS]STNVGSNTP-NH2; disulfide 2-7), in data set [1], the “Solubility, Acetate buffer pH 4” value was “SS (SS indicates solubility ≥ 1mg/ml)”; the “Solubility, Acetate buffer pH 5” value is on record as “SS (SS indicates solubility ≥ 1mg/ml)”; the “Solubility, Histidine buffer pH 6” value was “SS (SS indicates solubility ≥ 1mg/ml)”; the “Solubility, Histidine buffer pH 7” value is reported as “SS (SS indicates solubility ≥ 1mg/ml)”. In data set [1], the “Solubility, Phosphate buffer pH 6” value is recorded as “SS (SS indicates solubility ≥ 1mg/ml)”; the “Solubility, Phosphate buffer pH 7” value is reported as “SS (SS indicates solubility ≥ 1mg/ml)”; the “Solubility, Phosphate buffer pH 7.5” value is “SS (SS indicates solubility ≥ 1mg/ml)”. Also, the EC50 in data set [2] (setting [3]) is 110 pM.
